Earlier results on three compounds are cited in patent US12311052B2, “Mitochondrial performance enhancement nanoemulsion method” (Quicksilver Scientific, Inc., priority 2017, dated 2025).

SMILES strings stand for the structures. Where two headings read alike, the source gives them in different places.

The conditions of data set [1]: consumed orally.
In the next data set the test system is Hepa1-6 mouse cells. The following applies: 10-30 μM PQQ for 24-48 hours.
For a further data set, the system named is cells. The following applies: inhibitors rotenone, 3-nitropropionic acid, antimycin A, sodium azide.
A further data set has as its system mice. The following applies: PQQ deficient mice compared to PQQ supplemented mice.
For data set [2] the following is noted: oral administration; extensively metabolized to glucuronide conjugate by liver and intestine.

With `COC1=C(OC)C(=O)C(C/C=C(\C)CC/C=C(\C)CC/C=C(\C)CC/C=C(\C)CC/C=C(\C)CC/C=C(\C)CC/C=C(\C)CC/C=C(\C)CC/C=C(\C)CCC=C(C)C)=C(C)C1=O` [CoQ10, Coenzyme Q10], in data set [1], the bioavailability is about 10%.

Take `O=C(O)c1cc(C(=O)O)c2c(n1)C(=O)C(=O)c1cc(C(=O)O)[nH]c1-2.[Na].[Na]` [PQQ, Pyrroloquinoline quinone disodium salt]: the “citrate synthase and cytochrome c oxidase activity, Mitotracker staining, mitochondrial DNA content, cellular oxygen respiration” value in the data set with Hepa1-6 mouse cells was “increased citrate synthase and cytochrome c oxidase activity, Mitotracker staining, mitochondrial DNA content, and cellular oxygen respiration”. Besides, the “protection of cells from mitochondrial inhibition” value with cells is recorded as “protect cells from mitochondrial inhibition”. In the data set on mice, the “reduction in the relative amount of mitochondria in the liver” value is given as 20 to 30%.

In the case of `Oc1ccc(/C=C/c2cc(O)cc(O)c2)cc1` [resveratrol, 3,5,4′-trihydroxy-trans-stilbene], the bioavailability result in data set [2] was “about 0.5%”.
